How the values were obtained:
[1] = Plasma anti-Xa levels after subcutaneous heparin dosing; assay type: in vivo; settings: mice
Experimental: Anti-Xa levels were measured in plasma from multiple mice, 30 min after each mouse received a single “1×” or “3×” subcutaneous dose of various heparins. Each open circle represents one mouse and horizontal bars represent mean values.
Titrating Heparin Dosage via Plasma Anti-Xa Levels: Mice were injected subcutaneously with 100 ul of UFH, TINZ, or FOND diluted in PBS, at various final concentrations. Thirty minutes later, blood was collected by cardiac puncture into 1 cc syringe containing 30 ul 10 mM EDTA. Samples were centrifuged twice at 2,000 rcf at 24° C. to collect the plasma, which was stored at −80° C. until analysis for anti-Xa activity. […] The resulting chromophore was measured at 405 nm. Plasma heparin levels were calculated in anti-Xa units/ml by comparing against a standard curve of heparin-spiked mouse plasma samples. Standards and samples were analyzed in triplicate. […]
Pharmacokinetic Studies in Mice to Normalize Heparin Dosing. […] Therapeutic levels for patients treated with heparin for venous thromboembolism are ˜1 anti-factor Xa unit/ml for LMWHs, typically measured at 3-4 hours after injection. […] Plasma anti-Xa levels were analyzed 30 minutes after subcutaneous delivery, which is when the tumor cells would be injected into the vasculature in the planned metastasis experiments. […] Single heparin doses were increased from “1×” to “3×” dosing, and analyzed the anti-Xa levels (FIG. 2B). […]

[2] = system: B16F1 cells; assay: Melanoma experimental metastasis assay; assay type: in vivo, mouse; settings: 1× dose s.c. 30 min before i.v. B16F1 cells; day 17
Experimental: FIG. 4 depicts heparins with selectin-inhibitory activity that inhibit metastasis of melanoma cells. Mice were injected subcutaneously with “1×” heparin (A) or “3×” heparin (B) (or PBS as a control), and 30 minutes later were injected intravenously with B16F1 cells. After 17 days, mice were euthanized, lungs perfused with formalin through the trachea and then allowed to fix in formalin for a minimum of 24 hours. Metastasis was quantified by measuring lung weight, which correlated well with the physical appearance of the lungs, documented by photography (representative pictures are shown below quantification). Open circles each represent one mouse and horizontal bars represent mean lung weights. P-values were determined by a Student's T-test, assuming two-tailed, unequal distribution.
Melanoma Experimental Metastasis Assay: Mice were injected with heparin and 500,000 B16F1 cells using the protocol described for the carcinoma metastasis assay. […] Lung weights were determined by removing the lungs from formalin, briefly setting them on filter paper to remove excess liquid, and then weighing them on a Sartorius analytical scale.
Heparin Inhibition of Melanoma Metastasis is Also Dependent on Selectin-Inhibitory Activity. […] Seventeen days following injection, the lungs were excised and evaluated for the presence of metastatic foci. […]

[3] = incorporated into liposomes; cited from earlier work
[4] = hirudin 10 mg/kg, at the time of tumor cell injection; almost all above limits of detection; cited from earlier work
[5] = system: tumor cells; settings: cited from earlier work

CO[C@H]1O[C@H](COS(=O)(=O)O)[C@@H](O[C@@H]2O[C@@H](C(=O)O)[C@@H](O[C@H]3O[C@H](COS(=O)(=O)O)[C@@H](O[C@@H]4O[C@H](C(=O)O)[C@@H](O[C@H]5O[C@H](COS(=O)(=O)O)[C@@H](O)[C@H](O)[C@H]5NS(=O)(=O)O)[C@H](O)[C@H]4O)[C@H](OS(=O)(=O)O)[C@H]3NS(=O)(=O)O)[C@H](O)[C@H]2OS(=O)(=O)O)[C@H](O)[C@H]1NS(=O)(=O)O [FOND, Fondaparinux]
mean plasma anti-Xa level ([1]; 30 min after single subcutaneous 1× dose, range meant: therapeutic ~1 anti-factor Xa unit/ml): within this range
plasma anti-Xa level ([1]; 30 min after single subcutaneous 3× dose): at or above the accepted range for clinical anticoagulation
metastasis (lung weight) [2]: no effect

CCCCCCCCCCCCCCCC(=O)OCn1ccnc1 [PMI, 1-(palmitoyloxymethyl)imidazole]
apparent pKa [3]: 5.12

hirudin
clotting time in activated partial thromboplastin time test [4]: > 300 s
pulmonary arrest of tumor cells ([5]; hirudin 10 mg/kg twenty minutes prior to tumor cell injection): decreased pulmonary arrest of tumor cells
formation of metastatic foci ([5]; hirudin 20 mg/kg before, 4 h after, then every other day for 10 days, i.v. tumor cells): significant decrease in formation of metastatic foci

Source: patent publication US20100081630A1, “Heparin Compositions and Selectin Inhibition” (University of California, priority 2005, published 2010)
